Test results: patent US20170281573A1, “MEDICINAL COMPOSITION FOR ENHANCED DELIVERY OF TRITERPENES” (PHARCON INC., priority 2016, published 2017)
Structures can show the parent of a compound that is named as a salt.

Assay: Water solubility
Type: physicochemical

SMILES	water solubility
C[C@H]1[C@H](C)CC[C@]2(C(=O)O)CC[C@]3(C)C(=CC[C@@H]4[C@@]5(C)C[C@@H](O)[C@H](O)C(C)(C)[C@@H]5CC[C@]43C)[C@H]12 [Corosolic acid]	below 1 mcg/ml
C[C@H]1[C@H](C)CC[C@]2(C(=O)O)CC[C@]3(C)C(=CC[C@@H]4[C@@]5(C)C[C@@H](O)[C@H](O)C(C)(C)[C@@H]5CC[C@]43C)[C@H]12 [sodium salt of this acid]	less than 5 mcg/ml
